These results are taken from patent US5861424A, “Composition and method for treating cancer” (priority 1995, dated 1999).

Each structure is given as a SMILES string. Like-named read-outs stand apart in the source and are kept apart here.

For assay [1], the system named is normal monkey kidney epithelial cell line CV-1. Briefly: Colony formation assay, normal monkey kidney epithelial cells CV-1.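 Note: colonies visualized by crystal violet staining, incubation at 37 °C, IC50 relative to untreated wells given culture medium alone.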 The conditions noted are these: Primates, Epithelial cell.
Method: (§2) Human colon carcinoma cell line CX-1 or normal monkey kidney epithelial cell line CV-1 was chosen as representatives of cancer cells and normal cells, respectively. […] CX-1 cells (2,000 cells/well) and CV-1 cells (1,000 cells/well) were plated in 24-well plastic culture plates. […] The control received culture media only. Cells were treated with compounds of General Formulas (1) to (6) at 37° C. for 24 hours. After rinsing with fresh culture medium three times, the cells were further incubated at 37° C. for 7 to 10 days. Cell colonies were fixed and stained with 2% crystal violet in 70% ethanol for 10 minutes and rinsed in water. […] The selectivity is defined as the ratio of IC50 for CV-1 and IC50 for CX-1.
For assay [2], the system named is human melanoma LOX cell line. Briefly: Colony formation assay, human melanoma LOX. In kind it is cell-based. To be noted: Table V; for IC50: Homo sapiens, LOX, 24 h, 24 h treatment, read-out: LOX (IC50); for Selectivity (CV-1 IC50 / LOX IC50): CV-1/LOX. The source says: (§1) The control received culture media only.
Assay [3] has as its system human breast carcinoma MCF-7 cell line. Put plainly: Colony formation assay, human breast carcinoma MCF-7. It is filed as cell-based. The conditions noted are these: Table VI; for Selectivity (CV-1 IC50 / MCF-7 IC50): CV-1/MCF-7; for IC50: Homo sapiens, MCF7, 24 h, read-out: MCF-7 (IC50).
From the text: as §1
The Selectivity values, MCF-7 values and CV-1 values for compounds of the General Formulas (1) to (6) used in the present invention are shown in Table VI below.

For assay [4], the system named is human colon carcinoma cell line CX-1. Put plainly: Colony formation assay, human colon carcinoma CX-1. The conditions noted are these: for IC50: Homo sapiens, Colon carcinoma cell; for Selectivity (ratio of IC50 for CV-1 and IC50 for CX-1): CV-1/CX-1. In kind it is cell-based.
Method: as §2
Assay [5] deals with human bladder carcinoma EJ cell line. Put plainly: Colony formation assay, human bladder carcinoma EJ. In kind it is cell-based. To be noted: Table IV; for IC50: Homo sapiens, EJ, 24 h, 24 h treatment, read-out: EJ (IC50); for Selectivity (CV-1 IC50 / EJ IC50): CV-1/EJ.
From the text: as §1

Assay [6] concerns human pancreatic carcinoma CRL 1420 cell line. Put plainly: Colony formation assay, human pancreatic carcinoma CRL 1420. It is filed as cell-based. To be noted: Table VII; for Selectivity (CV-1 IC50 / CRL-1420 IC50): CV-1/CRL-1420; for IC50: Homo sapiens, 24 h.
From the text: as §1
The Selectivity values, CRL 1420 values and CV-1 values for compounds of the General Formulas (1) to (6) used in the present invention are shown in Table VII below.

Setting [7] is: read-out: CV-1 (IC50), Table IV.
Where [8] appears, read: Table III, 24 h treatment, colony count after 7 to 10 days, read-out: CX-1 (IC50).
Where [9] appears, read: read-out: CV-1 (IC50), Table VI.
[10] abbreviates: read-out: CV-1 (IC50), Table VII.
Setting [11] is: read-out: CV-1 (IC50), Table III, 24 h treatment, colony count after 7 to 10 days.

In general, IC50 refers to the concentration that gives 50% inhibition. In the case of `CCN1C(=CC=c2sc(=Cc3sc4ccccc4[n+]3CC)n(CC)c2=O)Sc2ccc3ccccc3c21` [Compound 37], the half-maximal inhibitory concentration (IC50) in assay [1] (setting [7]) was 5 µg/mL; in assay [1] (read-out: CV-1 (IC50), Table V), 5 µg/mL; in assay [2] it was 0.05 µg/mL; in assay [4] (setting [8]) it was 0.02 µg/mL; in assay [5], 0.03 µg/mL. The “Selectivity (CV-1 IC50 / LOX IC50)” value in assay [2] came to 100. In assay [3] (24 h treatment), the “MCF-7 (IC50)” value is 0.05 µg/mL. In addition, in assay [3], the “Selectivity (CV-1 IC50 / MCF-7 IC50)” value worked out at 100. For the same molecule, in assay [4] (Table III), the “Selectivity (ratio of IC50 for CV-1 and IC50 for CX-1)” value came out at 250. The “Selectivity (CV-1 IC50 / EJ IC50)” value in assay [5] amounted to 167. The “CRL-1420 (IC50)” value in assay [6] (24 h treatment) came to 0.03 µg/mL. Also, the “Selectivity (CV-1 IC50 / CRL-1420 IC50)” value in assay [6] was 167.

For the molecule `CCN1CCSC1=CC=c1sc(=Cc2sc3ccccc3[n+]2CCOC)n(CC)c1=O` [Compound 145], the IC50 came to 10 µg/mL in assay [1] (read-out: CV-1 (IC50)); 0.064 µg/mL in assay [2]; 0.1 µg/mL in assay [3] (24 h treatment); 0.05 µg/mL in assay [4] (setting [8]); 0.082 µg/mL in assay [5]; 0.082 µg/mL in assay [6] (24 h treatment). For the same molecule, the “Selectivity (CV-1 IC50 / LOX IC50)” value in assay [2] was found to be 156. For the same molecule, the “Selectivity (CV-1 IC50 / MCF-7 IC50)” value in assay [3] worked out at 100. The “Selectivity (ratio of IC50 for CV-1 and IC50 for CX-1)” value in assay [4] (Table III) turned out to be 200. In addition, in assay [5], the “Selectivity (CV-1 IC50 / EJ IC50)” value is 122. Also, in assay [6], the “Selectivity (CV-1 IC50 / CRL-1420 IC50)” value is listed as 122.

Regarding `CCN1C(=CC=c2sc(=Cc3sc4c5ccccc5ccc4[n+]3C)n(CC)c2=O)Sc2ccc3ccccc3c21` [Compound 49], the IC50 in assay [1] (setting [7]) was determined as 20 µg/mL; in assay [1] (read-out: CV-1 (IC50), Table V) it was 20 µg/mL; in assay [1] (setting [9]), 20 µg/mL; in assay [1] (setting [10]), 20 µg/mL; in assay [2], 0.075 µg/mL; in assay [3] (24 h treatment), 0.06 µg/mL. Further, the figures for the IC50 in assay [5] and in assay [6] (24 h treatment) were 0.045 µg/mL and 0.075 µg/mL, respectively. In addition, in assay [2], the “Selectivity (CV-1 IC50 / LOX IC50)” value was determined as 267. The “Selectivity (CV-1 IC50 / MCF-7 IC50)” value in assay [3] is on record as 333. The “CX-1 (IC50)” value in assay [4] (Table III, 24 h treatment, colony count after 7 to 10 days) was found to be 0.03 µg/mL. The “Selectivity (ratio of IC50 for CV-1 and IC50 for CX-1)” value in assay [4] (Table III) is recorded as 667. Besides, in assay [5], the “Selectivity (CV-1 IC50 / EJ IC50)” value is 444. Moreover, the “Selectivity (CV-1 IC50 / CRL-1420 IC50)” value in assay [6] is listed as 267.

As to `CCn1c(=Cc2sc3ccccc3[n+]2CC)sc(=CC=C2N(C)c3ccccc3C2(C)C)c1=O` [Compound 206], the half-maximal inhibitory concentration (IC50) in assay [1] (setting [11]) turned out to be 6 µg/mL; in assay [1] (setting [7]), 6 µg/mL; in assay [1] (read-out: CV-1 (IC50), Table V) it was 6 µg/mL; in assay [1] (setting [9]), 6 µg/mL; in assay [1] (setting [10]) it was 6 µg/mL; in assay [2], 0.03 µg/mL. Besides, the 50% inhibitory concentration (IC50) was determined as 0.048 µg/mL in assay [3] (24 h treatment), 0.01 µg/mL in assay [4] (setting [8]), 0.013 µg/mL in assay [5] and 0.03 µg/mL in assay [6] (24 h treatment). The “Selectivity (CV-1 IC50 / LOX IC50)” value in assay [2] was 196. Besides, in assay [3], the “Selectivity (CV-1 IC50 / MCF-7 IC50)” value came out at 125. For the same molecule, the “Selectivity (ratio of IC50 for CV-1 and IC50 for CX-1)” value in assay [4] (Table III) was found to be 600. In assay [5], the “Selectivity (CV-1 IC50 / EJ IC50)” value worked out at 462. For the same molecule, the “Selectivity (CV-1 IC50 / CRL-1420 IC50)” value in assay [6] stood at 196.

Regarding `CCn1c(=Cc2sc3ccccc3[n+]2CC)sc(=CC=C2SCCN2C)c1=O` [Compound 141], the half-inhibitory concentration (IC50) came out at 20 µg/mL in assay [1] (setting [11]); 20 µg/mL in assay [1] (read-out: CV-1 (IC50), Table V); 20 µg/mL in assay [1] (setting [9]); 20 µg/mL in assay [1] (setting [10]); 0.064 µg/mL in assay [2]; 0.184 µg/mL in assay [3] (24 h treatment). The half-inhibitory concentration (IC50) was 0.05 µg/mL in assay [4] (setting [8]) and 0.045 µg/mL in assay [6] (24 h treatment). The “Selectivity (CV-1 IC50 / LOX IC50)” value in assay [2] was found to be 312. In assay [3], the “Selectivity (CV-1 IC50 / MCF-7 IC50)” value is 109. In assay [4] (Table III), the “Selectivity (ratio of IC50 for CV-1 and IC50 for CX-1)” value amounted to 400. For the same molecule, in assay [6], the “Selectivity (CV-1 IC50 / CRL-1420 IC50)” value is reported as 444.

As for `CCN1C(=CC=c2sc(=Cc3sc4ccc5ccccc5c4[n+]3CC)n(CC)c2=O)N(CC)c2ccccc21` [Compound 234], the half-maximal inhibitory concentration (IC50) in assay [1] (read-out: CV-1 (IC50)) was found to be 10 µg/mL; in assay [2] it was 0.03 µg/mL; in assay [3] (24 h treatment), 0.05 µg/mL; in assay [4] (read-out: CX-1 (IC50), Table III, 24 h treatment, colony count after 7 to 10 days) it was 0.03 µg/mL; in assay [6] (24 h treatment), 0.03 µg/mL. For the same molecule, in assay [2], the “Selectivity (CV-1 IC50 / LOX IC50)” value is given as 333. Moreover, the “Selectivity (CV-1 IC50 / MCF-7 IC50)” value in assay [3] came out at 200. Also, the “Selectivity (ratio of IC50 for CV-1 and IC50 for CX-1)” value in assay [4] (Table III) came out at 333. Moreover, in assay [6], the “Selectivity (CV-1 IC50 / CRL-1420 IC50)” value worked out at 333.
